Test system: PC-3 PIP/flu tumor-bearing mice
Experiment: Biodistribution studies in PC-3 PIP/flu tumor-bearing mice
Details: for Tumor-to-blood / Tumor-to-kidney / Tumor-to-liver: PC-3 PIP tumor

Cc1ccc(CCCC(=O)NCCCCC(NC(=O)CN2CCN(CC(=O)O)CCN(CC(=O)O)CCN(CC(=O)O)CC2)C(=O)NCC2CCC(C(=O)NC(Cc3ccc4ccccc4c3)C(=O)NCCCCC(NC(=O)NC(CCC(=O)O)C(=O)O)C(=O)O)CC2)cc1 (centres unmarked) [44Sc-PSMA-ALB-06, metal not drawn]
Tumor-to-blood (1 h p.i.): 0.94 ± 0.11
Tumor-to-kidney (1 h p.i.): 0.77 ± 0.12
Tumor-to-liver (1 h p.i.): 4.28 ± 0.52
Blood (4 h p.i.): 18.4 ± 1.00 % IA/g
Bone (4 h p.i.): 2.50 ± 0.35 % IA/g
Heart (4 h p.i.): 6.48 ± 0.50 % IA/g
Intestines (4 h p.i.): 2.50 ± 0.13 % IA/g
Kidneys (4 h p.i.): 28.8 ± 2.46 % IA/g
Muscle (4 h p.i.): 2.24 ± 0.10 % IA/g
PC-3 PIP Tumor (4 h p.i.): 61.7 ± 7.32 % IA/g
PC-3 flu Tumor (4 h p.i.): 4.37 ± 0.43 % IA/g
Salivary glands (4 h p.i.): 4.55 ± 0.41 % IA/g
Spleen (4 h p.i.): 4.10 ± 0.54 % IA/g
Tumor-to-blood (4 h p.i.): 3.35 ± 0.20
Tumor-to-kidney (4 h p.i.): 2.14 ± 0.15
Tumor-to-liver (4 h p.i.): 17.93 ± 3.32
Blood (6 h p.i.): 15.6 ± 0.75 % IA/g
Bone (6 h p.i.): 2.54 ± 0.27 % IA/g
Intestines (6 h p.i.): 2.07 ± 0.34 % IA/g
Kidneys (6 h p.i.): 21.7 ± 0.42 % IA/g
Liver (6 h p.i.): 3.67 ± 0.68 % IA/g
Lung (6 h p.i.): 9.44 ± 0.86 % IA/g
PC-3 PIP Tumor (6 h p.i.): 72.9 ± 11.1 % IA/g
PC-3 flu Tumor (6 h p.i.): 3.87 ± 0.45 % IA/g
Salivary gland (6 h p.i.): 4.03 ± 0.22 % IA/g
Spleen (6 h p.i.): 3.67 ± 0.37 % IA/g
Tumor-to-blood (6 h p.i.): 4.69 ± 0.67
Tumor-to-kidney (6 h p.i.): 3.35 ± 0.42
Tumor-to-liver (6 h p.i.): 20.2 ± 3.43
